PMC8226862, “Design, Synthesis and Anticancer Activity of a New Series of N-aryl-N′-[4-(pyridin-2-ylmethoxy)benzyl]urea Derivatives” (Molecules, 2021)

What was measured:
[1] = tested on: A549 (non-small cell lung cancer cell line); experiment: MTT antiproliferative assay, A549; type: cell-based, human; conditions: 96 h incubation
Protocol: (§1) The target compounds were evaluated for their antiproliferative activity against different human cancer cell lines, including A549 (non-small cell lung cancer cell line), MCF-7 (breast cancer cell line), HCT116 (colon cancer cell line), PC-3 (prostate cancer cell line) and HL7702 (human liver normal cell line) by using the MTT assay with sorafenib as the control drug.
(§2) The antiproliferative activities of target compounds were determined using a standard MTT assay. Exponentially growing cells A549 (1.5 × 10^3 cells/well), MCF-7 (2.2 × 10^3 cells/well), HCT-116 (800 cells/well), PC-3 (2.0 × 10^3 cells/well) and HL7702 (5.0 × 10^3 cells/well) were seeded into 96-well plates and incubated for 24 h to allow the cells to attach. Then, a fresh medium containing various concentrations of the candidate compounds was added to each well. The cells were then incubated for 96 h, thereafter MTT assays were performed, and cell viability was assessed at 570 nm by a microplate reader (ThermoFisher Scientific (Shanghai) Instrument Co., Ltd., Shanghai, China). The optical densities (OD) at 570 nm were measured, and the IC50 of the target compounds was calculated by using GraphPad Prism 5.0 software to perform nonlinear fitting with the cell survival rate under different concentrations of the compounds.

[2] = tested on: MCF-7 (breast cancer cell line); experiment: MTT antiproliferative assay, MCF7; type: cell-based, human; conditions: 96 h incubation
Protocol: as §1, §2

[3] = tested on: HCT116 (colon cancer cell line); experiment: MTT antiproliferative assay, HCT116; type: cell-based, human; conditions: 96 h incubation
Protocol: as §1, §2

[4] = tested on: PC-3 (prostate cancer cell line); experiment: MTT antiproliferative assay, PC3; type: cell-based, human; conditions: 96 h incubation
Protocol: as §1, §2

[5] = tested on: HL7702 (human liver normal cell line); experiment: MTT cytotoxicity assay, HL7702; type: cell-based; conditions: L02, HL7702 normal liver cells, 96 h incubation
Protocol: as §1, §2

MCF-7 cells = experiment: Cell cycle analysis by flow cytometry (PI staining); type: cell-based, human; conditions: for percentage of cells in the G2/M phase: 72 h
Protocol: The effect of compound 9b on the cell cycle was assayed.
[…] After an incubation period, the cells were collected, centrifuged, and fixed with ice-cold ethanol (70%). The cells were then treated with buffer containing RNAse A and 0.1% Triton X-100 and then stained with the propidium iodide (PI). The samples were analyzed on a flow cytometer (Becton, Dickinson, Franklin Lakes, NJ, USA). Data were analyzed using Flowjo software v9.0.

Row | SMILES | IC50 ([1]; Homo sapiens, A549, 96 h) | IC50 ([2]; Homo sapiens, MCF7, 96 h) | IC50 ([3]; Homo sapiens, HCT-116, 96 h) | IC50 ([4]; Homo sapiens, 96 h) | melting point | IC50 [1] | IC50 [2] | IC50 [4] | IC50 [3] | IC50 [5] | percentage of cells in the G2/M phase (MCF-7 cells; MCF-7, 2.5 μM) | percentage of cells in the G2/M phase (MCF-7 cells; MCF-7, 5 μM) | percentage of cells in the G2/M phase (MCF-7 cells; MCF-7, 10 μM) | percentage of cells in the G2/M phase (MCF-7 cells; MCF-7, 20 μM) | effect on the cell cycle (MCF-7 cells; MCF-7, 2.5-20 μM, concentration-dependent)
1 | COc1cc(CNC(=O)Nc2ccc(OC(F)(F)F)cc2)ccc1OCc1nccc(OCC(F)(F)F)c1C [8a, 1-(3-methoxy-4-((3-methyl-4-(2,2,2-trifluoroethoxy)pyridin-2-yl)methoxy)benzyl)-3-(4-(trifluoromethoxy)phenyl)urea] | 5.3 ± 1.45 µM | > 50 µM | 7.25 ± 0.87 µM | > 50 µM | 158.8 to 159.3 °C |  |  |  |  | > 50 µM |  |  |  |  | 
2 | COc1cc(CNC(=O)Nc2ccc(F)c(Cl)c2)ccc1OCc1nccc(OCC(F)(F)F)c1C [8b, 1-(3-chloro-4-fluorophenyl)-3-(3-methoxy-4-((3-methyl-4-(2,2,2-trifluoroethoxy)pyridin-2-yl)methoxy)benzyl)urea] | 17.7 ± 5.65 µM | 11 ± 1.68 µM | 9.33 ± 1.38 µM | 29.1 ± 5.81 µM | 167.8 to 169.1 °C |  |  |  |  | > 50 µM |  |  |  |  | 
3 | COc1cc(CNC(=O)Nc2cccc(C(F)(F)F)c2)ccc1OCc1nccc(OCC(F)(F)F)c1C [8d, 1-(3-methoxy-4-((3-methyl-4-(2,2,2-trifluoroethoxy)pyridin-2-yl)methoxy)benzyl)-3-(3-(trifluoromethyl)phenyl)urea] | 26.5 ± 5.66 µM | > 50 µM | 9.44 ± 1.22 µM | > 50 µM | 153.2 to 154.2 °C |  |  |  |  | > 50 µM |  |  |  |  | 
4 | COc1ccc(NC(=O)NCc2ccc(OCc3nccc(OCC(F)(F)F)c3C)c(OC)c2)cc1 [8e, 1-(3-methoxy-4-((3-methyl-4-(2,2,2-trifluoroethoxy)pyridin-2-yl)methoxy)benzyl)-3-(4-methoxyphenyl)urea] | 29.8 ± 5.09 µM | > 50 µM | 28.8 ± 3.11 µM | > 50 µM | 179.5 to 180.3 °C |  |  |  |  | > 50 µM |  |  |  |  | 
5 | COc1cc(CNC(=O)Nc2cccc([N+](=O)[O-])c2)ccc1OCc1nccc(OCC(F)(F)F)c1C [8f, 1-(3-methoxy-4-((3-methyl-4-(2,2,2-trifluoroethoxy)pyridin-2-yl)methoxy)benzyl)-3-(3-nitrophenyl)urea] | 12.4 ± 0.6 µM | 13.3 ± 2.27 µM | 13.3 ± 2.78 µM | 15.9 ± 0.73 µM | 168.9 to 170.5 °C |  |  |  |  | > 50 µM |  |  |  |  | 
6 | COc1ccc(CNC(=O)NCc2ccc(OCc3nccc(OCC(F)(F)F)c3C)c(OC)c2)cc1 [8g, 1-(3-methoxy-4-((3-methyl-4-(2,2,2-trifluoroethoxy)pyridin-2-yl)methoxy)benzyl)-3-(4-methoxybenzyl)urea] | > 50 µM | > 50 µM | 7.84 ± 1.4 µM | > 50 µM | 153 to 154.2 °C |  |  |  |  | > 50 µM |  |  |  |  | 
7 | CCOc1ccc(CNC(=O)NCc2ccc(OCc3nccc(OCC(F)(F)F)c3C)c(OC)c2)cc1 [8h, 1-(4-ethoxybenzyl)-3-(3-methoxy-4-((3-methyl-4-(2,2,2-trifluoroethoxy)pyridin-2-yl)methoxy)benzyl)urea] | 10.9 ± 2.02 µM | > 50 µM | 23.3 ± 3.12 µM | > 50 µM | 148.9 to 149.9 °C |  |  |  |  | > 50 µM |  |  |  |  | 
8 | COc1cc(CNC(=O)NCc2ccc(N(C)C)cc2)ccc1OCc1nccc(OCC(F)(F)F)c1C [8i, 1-(4-(dimethylamino)benzyl)-3-(3-methoxy-4-((3-methyl-4-(2,2,2-trifluoroethoxy)pyridin-2-yl)methoxy)benzyl)urea] | 9.85 ± 4.4 µM | > 50 µM | 10.9 ± 2.85 µM | > 50 µM | 159.4 to 161.4 °C |  |  |  |  | > 50 µM |  |  |  |  | 
9 | CCOc1ccc(CNC(=O)N(Cc2ccc(OCc3nccc(OCC(F)(F)F)c3C)c(OC)c2)C2CCN(C)CC2)cc1 [9g, 3-(4-ethoxybenzyl)-1-(3-methoxy-4-((3-methyl-4-(2,2,2-trifluoroethoxy)pyridin-2-yl)methoxy)benzyl)-1-(1-methylpiperidin-4-yl)urea] | 6.04 ± 0.41 µM | 4.23 ± 0.47 µM | < 3 µM | 6.25 ± 0.43 µM | 119 to 121.2 °C |  |  |  | 2.93 ± 0.26 µM | > 50 µM |  |  |  |  | 
10 | CNC(=O)c1cc(Oc2ccc(NC(=O)Nc3ccc(Cl)c(C(F)(F)F)c3)cc2)ccn1 [sorafenib, reference compound] | 6.16 ± 0.46 µM | 3.54 ± 0.19 µM | 3.88 ± 0.36 µM | 5.26 ± 0.46 µM |  |  |  |  |  | > 50 µM |  |  |  |  | 

Continued, in another order:

Row | IC50 ([1]; Homo sapiens, A549, 96 h) | IC50 ([2]; Homo sapiens, MCF7, 96 h) | IC50 ([3]; Homo sapiens, HCT-116, 96 h) | IC50 ([4]; Homo sapiens, 96 h) | melting point | IC50 [1] | IC50 [2] | IC50 [4] | IC50 [3] | SMILES | IC50 [5] | percentage of cells in the G2/M phase (MCF-7 cells; MCF-7, 2.5 μM) | percentage of cells in the G2/M phase (MCF-7 cells; MCF-7, 5 μM) | percentage of cells in the G2/M phase (MCF-7 cells; MCF-7, 10 μM) | percentage of cells in the G2/M phase (MCF-7 cells; MCF-7, 20 μM) | effect on the cell cycle (MCF-7 cells; MCF-7, 2.5-20 μM, concentration-dependent)
11 | < 5 µM | > 50 µM | 11.4 ± 3.28 µM | > 50 µM | 169.9 to 171 °C | 4.88 ± 1.94 µM |  |  |  | COc1cc(CNC(=O)Nc2ccc(C(F)(F)F)cc2)ccc1OCc1nccc(OCC(F)(F)F)c1C [8c, 1-(3-methoxy-4-((3-methyl-4-(2,2,2-trifluoroethoxy)pyridin-2-yl)methoxy)benzyl)-3-(4-(trifluoromethyl)phenyl)urea] | > 50 µM |  |  |  |  | 
12 | 17.5 ± 2.95 µM | < 3 µM | 4.41 ± 0.14 µM | < 5 µM | 127.3 to 129.4 °C |  | 2.59 ± 0.29 µM | 4.1 ± 0.19 µM |  | COc1cc(CN(C(=O)Nc2ccc(OC(F)(F)F)cc2)C2CCN(C)CC2)ccc1OCc1nccc(OCC(F)(F)F)c1C [9a, 1-(3-methoxy-4-((3-methyl-4-(2,2,2-trifluoroethoxy)pyridin-2-yl)methoxy)benzyl)-1-(1-methylpiperidin-4-yl)-3-(4-(trifluoromethoxy)phenyl)urea] | > 50 µM |  |  |  |  | 
13 | < 5 µM | < 3 µM | < 3 µM | < 5 µM | 138.4 to 140.5 °C | 4.93 ± 0.46 µM | 2.56 ± 0.07 µM | 3.36 ± 0.17 µM | 2.9 ± 0.16 µM | COc1cc(CN(C(=O)Nc2ccc(C(F)(F)F)cc2)C2CCN(C)CC2)ccc1OCc1nccc(OCC(F)(F)F)c1C [9b, 1-(3-methoxy-4-((3-methyl-4-(2,2,2-trifluoroethoxy)pyridin-2-yl)methoxy)benzyl)-1-(1-methylpiperidin-4-yl)-3-(4-(trifluoromethyl)phenyl)urea] | > 50 µM | 16.7% | 23.5% | 27.7% | 39.3% | obvious G2/M arrest
14 | 15.8 ± 1.51 µM | 4.65 ± 0.73 µM | 12.9 ± 1.59 µM | 12.3 ± 1.75 µM | 179.1 to 180.8 °C |  |  |  |  | COc1ccc(NC(=O)N(Cc2ccc(OCc3nccc(OCC(F)(F)F)c3C)c(OC)c2)C2CCN(C)CC2)cc1 [9c, 1-(3-methoxy-4-((3-methyl-4-(2,2,2-trifluoroethoxy)pyridin-2-yl)methoxy)benzyl)-3-(4-methoxyphenyl)-1-(1-methylpiperidin-4-yl)urea] | > 50 µM |  |  |  |  | 
15 | < 5 µM | < 3 µM | < 3 µM | < 5 µM | 160.4 to 162.2 °C | 3.17 ± 0.22 µM | 2.63 ± 0.08 µM | 3.62 ± 0.27 µM | 2.56 ± 0.26 µM | COc1cc(CN(C(=O)Nc2cccc(C(F)(F)F)c2)C2CCN(C)CC2)ccc1OCc1nccc(OCC(F)(F)F)c1C [9d, 1-(3-methoxy-4-((3-methyl-4-(2,2,2-trifluoroethoxy)pyridin-2-yl)methoxy)benzyl)-1-(1-methylpiperidin-4-yl)-3-(3-(trifluoromethyl)phenyl)urea] | > 50 µM |  |  |  |  | 
16 | 5.48 ± 4.36 µM | < 3 µM | 5.82 ± 0.21 µM | < 5 µM | 176.2 to 177.7 °C |  | 2.56 ± 0.16 µM | 4.53 ± 0.33 µM |  | COc1cc(CN(C(=O)Nc2ccc(F)c(Cl)c2)C2CCN(C)CC2)ccc1OCc1nccc(OCC(F)(F)F)c1C [9e, 3-(3-chloro-4-fluorophenyl)-1-(3-methoxy-4-((3-methyl-4-(2,2,2-trifluoroethoxy)pyridin-2-yl)methoxy)benzyl)-1-(1-methylpiperidin-4-yl)urea] | > 50 µM |  |  |  |  | 
17 | 6.09 ± 0.29 µM | 3.18 ± 0.3 µM | 5.18 ± 0.33 µM | 7.39 ± 0.63 µM | 157.5 to 159.1 °C |  |  |  |  | COc1cc(CN(C(=O)Nc2cccc([N+](=O)[O-])c2)C2CCN(C)CC2)ccc1OCc1nccc(OCC(F)(F)F)c1C [9f, 1-(3-methoxy-4-((3-methyl-4-(2,2,2-trifluoroethoxy)pyridin-2-yl)methoxy)benzyl)-1-(1-methylpiperidin-4-yl)-3-(3-nitrophenyl)urea] | > 50 µM |  |  |  |  | 
